The results in this text go back to patent US7262173B2, “Chemosensitizing with liposomes containing oligonucleotides” (Georgetown University, priority 1997, dated 2007).

Data set [1] deals with SQ-20B cells. Nature of the data set: Intracellular raf ODN stability assay (PC/CHOL/DDAB liposomes). In kind it is cell-based, human. The settings on record: 10 μM for 4 hours, then 20% FBS medium up to 24 hours; denaturing gel. The procedure:
FIG. 2: (a) Time-course of cellular uptake of LE-ATG-AS raf ODN (SEQ ID NO:1), SQ-20B cells were incubated with ^32P-5 end labeled and an excess of unlabeled LE-ATG-AS raf ODN (SEQ ID NO:1) (10 μM) for indicated times as described in the experimental procedures. Results are mean±s.d from two independent experiments each performed in duplicate, (b) Intracellular stability of LE-ATG-AS raf ODN (SEQ ID NO:1). Cells were incubated with ^32P-end labeled and an excess of unlabeled LE-ATG-AS raf ODN (SEQ ID NO:1) (10 μM in 1% FBS containing medium for […], washed with PBS and then incubations continued in 20% FBS containing medium for 0 hour (lane 2), 2 hours (lane 3), 8 hours (lane 4), 12 hours (lane 5), and 24 hours (lane 6). Cells were lysed and ODNs in various samples were analyzed by denaturing gel electrophoresis as explained in the experimental procedures. Lane 2, radiolabeled control LE-ATG-AS raf ODN (SEQ ID NO: 1); 15-mer, ATG-AS raf ODN (SEQ ID NO:1) migrations of xylene cyanol (XC) and bromophenol blue (BP) are indicated.
For ODN stability studies, cells were seeded and incubated with 10 μM ^32P-labeled LE-ATG-AS raf ODN (SEQ ID NO:1) or ATG-AS raf ODN (SEQ ID NO:1) (1×10^6 c.p.m./ml) for 4 h at 37° C. in 1% FBS containing medium. […] ODNs were extracted with phenol: chloroform, and the aqueous fractions were collected and aliquots were analyzed by scintillation counting. […]

The subject of a further data set is Raf-1. Nature of the data set: Raf-1 expression in normal mouse tissues after i.v. ODN. In kind it is in vivo, Balb/c nu/nu mice. The settings on record: i.v. 6 mg/kg daily for 5 days. The procedure: FIG. 7: Effects of intravenous administration of LE-ATG-AS raf ODN (SEQ ID NO:1) our Raf-1 expression in normal and tumor tissues. Raf-1 expression was examined in liver, kidneys and SQ-20B tumor xenograft of Balb/c nu/nu mice after i.v. injections of 6 mg/kg daily dose of LE-ATG-AS raf ODN (SEQ ID NO:1) (AS) or LE-ATG-S raf ODN (SEQ ID NO:3) (S) for five consecutive days. Control mice (C) received normal saline. Representative data showing Raf-1 expression in lysates normalized for protein content by immunoprecipitation and immunoblotting (top). Quantification data are shown as mean±s.d. from three mice (bottom).
Logarithmically growing SQ-20B cells were injected subcutaneously (2×10^6 cells) in the flank regions on both sides in male Balb/c nu/nu mice under mild anesthesia. Tumors were allowed to grow to a mean tumor volume of 115 mm^3 before initiation of ODN treatment. Two treatment routes were followed: intravenous and intratumoral. For intravenous delivery, mice were randomly divided into six groups. […]
For in vivo expression studies, tumor tissue and organs were homogenized in the cell lysis buffer using Polytron homogenizer (Westbury, N.Y., USA). Raf-1 expression was analyzed in tissue homogenates by immunoprecipitation and immunoblotting as described above.

In data set [2] the test system is SQ-20B cells. The data set can be described thus: Radiation survival dose response assay. Format: cell-based, human. The note with it: free ODN 100 μm. The protocol: The appropriate numbers of SQ-20B cells were seeded in duplicate T-25 tissue culture flasks (Corning, N.Y., USA) in medium containing 20% FBS, and allowed to attach for 8 h at 37° C. […] Irradiations were performed using ^137Cs gamma irradiator (JL Shepard MARK I irradiator) and a dose rate of 114 cGy/min. The cells were irradiated with total doses of 1 Gy, 3 Gy, 5 Gy and 13 Gy, followed by incubation for 2 h. The medium in all flasks was then replaced with 20% FBS containing medium and incubations continued for 7–10 days. Surviving colonies were fixed and stained with 0.5% methylene blue and 0.13% carbol fuchsin in methanol. Colonies containing 50 or more cells were scored and data were fitted to the computer-generated single-hit multitarget and linear-quadratic models of radiation survival response.
SQ-20B cells treated with liposome-encapsulated ATG-AS raf ODN (SEQ ID NO:1) are radiosensitive. Radiation survival dose responses of SQ-20B cells exposed to LE-ATG-AS raf ODN (SEQ ID NO:1), LE-ATG-S raf ODN (SEQ ID NO:3), or blank liposomes are presented in Table 1. […] The single-hit, multitarget (target model) and the linear quadratic model (LQ) are most commonly used to analyze cellular radiation survival. The target model is based on the parameters D0 and fl, where D0 is the inverse of the terminal slope of the survival curve and fl is the extrapolation of this slope to the ordinate. […]

Turning to “5′-GTG-CTCCATTGATGC-3′ (antisense GTGCTCCATTGATGC; DNA, linkages s1 o12 s1 (s phosphorothioate, o phosphodiester), methylation of C not given here) [ATG-AS raf ODN, antisense ODN to translation initiation site of human c-raf-1 cDNA; one terminal base linkage at each end phosphorothioate]”, the “intracellular integrity of ODN” value in the data set on SQ-20B cells [1] is on record as “no detectable ODN at all time-points”. For the same substance, the “inhibition of Raf-1 expression in normal tissues” value in the data set on Raf-1 is given as “No inhibition”. Also, the “dose modifying factor (DMF)” value with SQ-20B cells [2] is on record as “approximately 1.4”.
